*1 amine or outer side, *2 acyl side, *3 side chain or, on linkers, in order; H or OH if unused. Where a SMILES comes first, the peptide text is derived from it. Side-chain parts run from the residue outwards. [ ]: non-standard residue; d: D form. The star is where a group is joined. C20 diacid = O=C(O)CCCCCCCCCCCCCCCCCCC(=O)*; γGlu = O=C(O)[C@H](CCC(=O)[*:2])N[*:1]; NMeI = CC[C@H](C)[C@H](NC)C(=O)O; αMeL = CC(C)C[C@](C)(N)C(=O)O; AEEA = NCCOCCOCC(=O)O; Aib = CC(C)(N)C(=O)O
biological target: T1, human CRHR1 (Homo sapiens, UniProt P34998); test: Human CRHR1 cAMP assay (HTRF) in HEK293 cells stably expressing human CRHR1; format: cell-based; conditions: HEK293 cells overexpressing human CRHR1; relative EC50, maximum 66 nM human UCN1; mean ± SE; read-out: hCRHR1 cAMP EC50 (pM, ± SE)
T1 construct: expressed in transfected cells
T1 sequence (P34998 24-415): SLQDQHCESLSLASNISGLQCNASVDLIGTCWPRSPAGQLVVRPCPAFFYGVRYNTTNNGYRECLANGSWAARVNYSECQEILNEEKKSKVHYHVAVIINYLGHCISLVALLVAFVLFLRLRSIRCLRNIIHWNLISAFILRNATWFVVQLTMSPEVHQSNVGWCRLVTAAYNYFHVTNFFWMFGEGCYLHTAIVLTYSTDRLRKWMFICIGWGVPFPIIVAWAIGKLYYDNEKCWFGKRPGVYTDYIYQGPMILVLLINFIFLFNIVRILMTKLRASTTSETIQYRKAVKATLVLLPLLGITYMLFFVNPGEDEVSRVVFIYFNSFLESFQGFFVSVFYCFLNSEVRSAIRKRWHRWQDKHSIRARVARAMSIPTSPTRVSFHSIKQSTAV
Summary of the method: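 Frozen stable HEK293-CRHR1 or -CRHR2 cells are thawed into IBMX-containing (0.25 mM) casein/HEPES pH 7.4 MEM buffer. Peptide dilution series (1:3) are added, then CRHR1 cells sit 1 h at 37° C and CRHR2 cells 30 min at room temperature. Intracellular cAMP is then measured by HTRF.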

SMILES	EC50 [pM]
CC[C@H](C)[C@H](NC(C)=O)C(=O)N[C@H](C(=O)N[C@H](C(=O)N[C@@H](CO)C(=O)N[C@@](C)(CC(C)C)C(=O)N[C@@H](CC(=O)O)C(=O)N[C@@H](C(=O)N1CCC[C@H]1C(=O)N[C@H](C(=O)NC(C)(C)C(=O)N[C@@](C)(CC(C)C)C(=O)N[C@@H](CC(C)C)C(=O)N[C@@H](CCC(N)=O)C(=O)N[C@H](C(=O)N[C@@H](CCCCN)C(=O)N[C@@H](CC(C)C)C(=O)N[C@@H](CCC(=O)O)C(=O)N[C@@H](CCC(N)=O)C(=O)N[C@@H](CCC(=O)O)C(=O)N[C@@H](CCCNC(=N)N)C(=O)N[C@@H](C)C(=O)N[C@@H](CCC(=O)O)C(=O)N[C@@H](CCCCN)C(=O)N[C@@H](C)C(=O)N[C@@H](CCCNC(=N)N)C(=O)N[C@@H](CCC(N)=O)C(=O)N[C@@H](CCC(N)=O)C(=O)N[C@@H](C)C(=O)N[C@@H](CCCCNC(=O)COCCOCCNC(=O)COCCOCCNC(=O)CC[C@H](NC(=O)CCCCCCCCCCCCCCCCCCC(=O)O)C(=O)O)C(=O)N[C@@H](CCC(=O)O)C(=O)N[C@@H](CC(N)=O)C(=O)N[C@H](C(=O)N[C@@H](CCC(=O)O)C(=O)N[C@H](C(=O)N[C@@H](CC(C)C)C(=O)N[C@@H](C)C(=O)N[C@@H](CCC(N)=O)C(=O)N[C@H](C(N)=O)C(C)C)[C@@H](C)CC)[C@@H](C)O)[C@@H](C)CC)[C@@H](C)O)C(C)C)[C@@H](C)O)C(C)C [SEQ ID NO: 41, Ac-IVTS αMeL D (D-Val) PT Aib αMeL LQIKLEQERAEKARQQAK((2-[2-(2-Amino-ethoxy)-ethoxy]-acetyl)2-γE-CO-(CH2)18-CO2H)ENTEILAQV-NH2] (Ac-IVTS[αMeL]D[dV]PT[Aib][αMeL]LQIKLEQERAEKARQQAK([AEEA-AEEA-γGlu-C20 diacid])ENTEILAQV-NH2)	3.7e+06
CC[C@H](C)[C@H](NC)C(=O)N[C@H](C(=O)N[C@H](C(=O)N[C@@H](CO)C(=O)N[C@@H](CC(C)C)C(=O)N[C@@H](CC(=O)O)C(=O)N[C@H](C(=O)N1CCC[C@H]1C(=O)N[C@H](C(=O)NCC(=O)N[C@@](C)(CC(C)C)C(=O)N[C@@H](CC(C)C)C(=O)N[C@@H](CCC(N)=O)C(=O)N[C@@H](CCCCN)C(=O)N[C@@H](CC(C)C)C(=O)N[C@H](C(=O)N[C@@H](CCC(=O)O)C(=O)N[C@@H](CCC(N)=O)C(=O)N[C@@H](CCC(=O)O)C(=O)N[C@@H](CCCCN)C(=O)N[C@@H](CCC(N)=O)C(=O)N[C@@H](CCC(=O)O)C(=O)N[C@@H](CCCCN)C(=O)N[C@@H](CCC(=O)O)C(=O)N[C@@H](CCCCN)C(=O)N[C@@H](CCC(N)=O)C(=O)N[C@@H](CCC(N)=O)C(=O)N[C@@H](C)C(=O)N[C@@H](CCCCNC(=O)COCCOCCNC(=O)COCCOCCNC(=O)CC[C@H](NC(=O)CCCCCCCCCCCCCCCCCCC(=O)O)C(=O)O)C(=O)N[C@@H](CCC(=O)O)C(=O)N[C@@H](CC(N)=O)C(=O)N[C@H](C(=O)N[C@@H](CCC(=O)O)C(=O)N[C@H](C(=O)N[C@@H](CC(C)C)C(=O)N[C@@H](C)C(=O)N[C@@H](CCC(N)=O)C(=O)N[C@H](C(N)=O)C(C)C)[C@@H](C)CC)[C@@H](C)O)[C@@H](C)CC)[C@@H](C)CC)C(C)C)[C@@H](C)O)C(C)C [SEQ ID NO: 49, (NMeI) VTSLDVPIG αMeL LQKLIEQEKQEKEKQQAK((2-[2-(2-Amino-ethoxy)-ethoxy]-acetyl)2-γE-CO-(CH2)18-CO2H)ENTEILAQV-NH2] (H-[NMeI]VTSLDVPIG[αMeL]LQKLIEQEKQEKEKQQAK([AEEA-AEEA-γGlu-C20 diacid])ENTEILAQV-NH2)	> 1e+07
CC[C@H](C)[C@H](NC)C(=O)N[C@H](C(=O)N[C@H](C(=O)N[C@@H](CO)C(=O)N[C@@H](CC(C)C)C(=O)N[C@@H](CC(=O)O)C(=O)N[C@H](C(=O)N1CCC[C@H]1C(=O)N[C@H](C(=O)NCC(=O)N[C@@](C)(CC(C)C)C(=O)N[C@@H](CC(C)C)C(=O)N[C@@H](CCC(N)=O)C(=O)N[C@@H](CCCCN)C(=O)N[C@@H](CC(C)C)C(=O)N[C@@H](CC(C)C)C(=O)N[C@@H](CCC(=O)O)C(=O)N[C@@H](CCC(N)=O)C(=O)N[C@@H](CCC(=O)O)C(=O)N[C@@H](CCCNC(=N)N)C(=O)N[C@@H](C)C(=O)N[C@@H](CCC(=O)O)C(=O)N[C@@H](CCCCN)C(=O)N[C@@H](C)C(=O)N[C@@H](CCCNC(=N)N)C(=O)N[C@@H](CCC(N)=O)C(=O)N[C@@H](CCC(N)=O)C(=O)N[C@@H](C)C(=O)N[C@@H](CCCCNC(=O)COCCOCCNC(=O)COCCOCCNC(=O)CC[C@H](NC(=O)CCCCCCCCCCCCCCCCCCC(=O)O)C(=O)O)C(=O)N[C@@H](CCC(=O)O)C(=O)N[C@@H](C)C(=O)N[C@@H](C)C(=O)N[C@@H](CCC(=O)O)C(=O)N[C@H](C(=O)N[C@@H](CC(C)C)C(=O)N[C@@H](C)C(=O)N[C@@H](CCC(N)=O)C(=O)N[C@H](C(N)=O)C(C)C)[C@@H](C)CC)[C@@H](C)CC)C(C)C)[C@@H](C)O)C(C)C [SEQ ID NO: 50, (NMeI) VTSLDVPIG αMeL LQKLLEQERAEKARQQAK((2-[2-(2-Amino-ethoxy)-ethoxy]-acetyl)2-γE-CO-(CH2)18-CO2H)EAAEILAQV-NH2] (H-[NMeI]VTSLDVPIG[αMeL]LQKLLEQERAEKARQQAK([AEEA-AEEA-γGlu-C20 diacid])EAAEILAQV-NH2)	> 1e+07
CC[C@H](C)[C@H](NC)C(=O)N[C@H](C(=O)N[C@@H](CC(C)C)C(=O)N[C@@H](CO)C(=O)N[C@@H](CC(C)C)C(=O)N[C@@H](CC(=O)O)C(=O)N[C@H](C(=O)N1CCC[C@H]1C(=O)N[C@H](C(=O)NCC(=O)N[C@@H](CC(C)C)C(=O)N[C@@H](CC(C)C)C(=O)N[C@@H](CCC(N)=O)C(=O)N[C@H](C(=O)N[C@@H](CC(C)C)C(=O)N[C@@H](CC(C)C)C(=O)N[C@@H](CCC(=O)O)C(=O)N[C@@H](CCC(N)=O)C(=O)N[C@@H](CCC(=O)O)C(=O)N[C@@H](CCCCN)C(=O)N[C@@H](CCC(N)=O)C(=O)N[C@@H](CCC(=O)O)C(=O)N[C@@H](CCCCN)C(=O)N[C@@H](CCC(=O)O)C(=O)N[C@@H](CCCCN)C(=O)N[C@@H](CCC(N)=O)C(=O)N[C@@H](CCC(N)=O)C(=O)N[C@@H](C)C(=O)N[C@@H](CCCCNC(=O)COCCOCCNC(=O)COCCOCCNC(=O)CC[C@H](NC(=O)CC[C@H](NC(=O)CCCCCCCCCCCCCCCCCCC(=O)O)C(=O)O)C(=O)O)C(=O)N[C@H](C(=O)N[C@@H](CC(N)=O)C(=O)N[C@@H](C)C(=O)N[C@@H](CCC(N)=O)C(=O)N[C@H](C(=O)N[C@@H](CC(C)C)C(=O)N[C@@H](C)C(=O)N[C@@H](CCC(N)=O)C(=O)N[C@H](C(N)=O)C(C)C)[C@@H](C)CC)[C@@H](C)O)[C@@H](C)CC)[C@@H](C)CC)C(C)C)C(C)C [SEQ ID NO: 54] (H-[NMeI]VLSLDVPIGLLQILLEQEKQEKEKQQAK([AEEA-AEEA-γGlu-γGlu-C20 diacid])TNAQILAQV-NH2)	> 1e+07
